From PubChem BioAssay AID288 (DTP/NCI, 2004)
Where “and” joins values, the source holds several entries; their conditions need not be identical. Equal values may be shown once. Results filed as inconclusive are left out.

Test system: BDF1 mice, M5076 sarcoma s.c., survival/tumor T/C
Experiment: NCI In Vivo Anticancer Drug Screen. Data for tumor model Sarcoma M5076 (subcutaneous) in B6D2F1 (BDF1) mice
Method: The antitumor activity of compounds was measured in mice bearing transplantable tumors. Survival or tumor size were measured and the results are expressed as the measurement made in the treated group (T) divided by the measurement made in the vehicle treated control group (C). The tumor model used in this assay is Sarcoma M5076 (subcutaneous) in B6D2F1 (BDF1) mice

CC1(C)N=C(N)N=C(N)N1c1ccc(CCCCc2ccc(S(=O)(=O)F)cc2Cl)c(Cl)c1
T/C (endpoint: median survival time, dose: 1.8 mg/kg/injection, schedule: Q01DX005 (iv), vehicle: other, higher = longer survival): 97 % of control | T/C (endpoint: median survival time, dose: 3.7 mg/kg/injection, schedule: Q01DX001 (iv), vehicle: other, higher = longer survival): 107 % of control | T/C (endpoint: median survival time, dose: 3.7 mg/kg/injection, schedule: Q01DX005 (iv), vehicle: other, higher = longer survival): 97 % of control | T/C (endpoint: median survival time, dose: 5.18 mg/kg/injection, schedule: Q01DX009 (ip), vehicle: other, higher = longer survival): 162 % of control | T/C (endpoint: median survival time, dose: 5.4 mg/kg/injection, schedule: Q01DX009 (ip), vehicle: other, higher = longer survival): 151 % of control | T/C (endpoint: median survival time, dose: 7.5 mg/kg/injection, schedule: Q01DX001 (iv), vehicle: other, higher = longer survival): 91 % of control | T/C (endpoint: median survival time, dose: 7.5 mg/kg/injection, schedule: Q01DX005 (iv), vehicle: other, higher = longer survival): 114 % of control | T/C (endpoint: median survival time, dose: 8.0 mg/kg/injection, schedule: Q01DX009 (ip), vehicle: other, higher = longer survival): 151 % of control | T/C (endpoint: median survival time, dose: 8.64 mg/kg/injection, schedule: Q01DX009 (ip), vehicle: other, higher = longer survival): 176 % of control | T/C (endpoint: median survival time, dose: 10.0 mg/kg/injection, schedule: Q01DX009 (ip), vehicle: saline with Tween-80, higher = longer survival): 150 % of control | T/C (endpoint: median survival time, dose: 14.4 mg/kg/injection, schedule: Q01DX009 (ip), vehicle: other, higher = longer survival): 190 % of control | T/C (endpoint: median survival time, dose: 15.0 mg/kg/injection, schedule: Q01DX001 (ip), vehicle: other, higher = longer survival): 110 % of control | T/C (endpoint: median survival time, dose: 15.0 mg/kg/injection, schedule: Q01DX005 (ip), vehicle: other, higher = longer survival): 124 % of control | T/C (endpoint: median survival time, dose: 15.0 mg/kg/injection, schedule: Q01DX009 (oral), vehicle: other, higher = longer survival): 89 % of control | T/C (endpoint: median survival time, dose: 20.0 mg/kg/injection, schedule: Q01DX009 (ip), vehicle: other, higher = longer survival): 155 % of control | T/C (endpoint: median survival time, dose: 20.0 mg/kg/injection, schedule: Q01DX009 (ip), vehicle: saline with Tween-80, higher = longer survival): 177 % of control | T/C (endpoint: median survival time, dose: 27.0 mg/kg/injection, schedule: Q01DX009 (ip), vehicle: saline with Tween-80, higher = longer survival): 168 % of control | T/C (endpoint: median survival time, dose: 30.0 mg/kg/injection, schedule: Q01DX001 (ip), vehicle: other, higher = longer survival): 103 % of control | T/C (endpoint: median survival time, dose: 30.0 mg/kg/injection, schedule: Q01DX001 (oral), vehicle: other, higher = longer survival): 110 % of control | T/C (endpoint: median survival time, dose: 30.0 mg/kg/injection, schedule: Q01DX005 (oral), vehicle: other, higher = longer survival): 97 % of control | T/C (endpoint: median survival time, dose: 30.0 mg/kg/injection, schedule: Q01DX009 (ip), vehicle: other, higher = longer survival): 169 % of control | T/C (endpoint: median survival time, dose: 30.0 mg/kg/injection, schedule: Q01DX009 (oral), vehicle: other, higher = longer survival): 120 % of control | T/C (endpoint: median survival time, dose: 40.0 mg/kg/injection, schedule: Q01DX009 (ip), vehicle: saline with Tween-80, higher = longer survival): 163 % of control and 217 % of control and 232 % of control | T/C (endpoint: median survival time, dose: 60.0 mg/kg/injection, schedule: Q01DX001 (ip), vehicle: other, higher = longer survival): 111 % of control | T/C (endpoint: median survival time, dose: 60.0 mg/kg/injection, schedule: Q01DX001 (oral), vehicle: other, higher = longer survival): 97 % of control | T/C (endpoint: median survival time, dose: 60.0 mg/kg/injection, schedule: Q01DX005 (oral), vehicle: other, higher = longer survival): 117 % of control | T/C (endpoint: median survival time, dose: 60.0 mg/kg/injection, schedule: Q01DX009 (ip), vehicle: saline with Tween-80, higher = longer survival): 204 % of control and 239 % of control | T/C (endpoint: median survival time, dose: 60.0 mg/kg/injection, schedule: Q01DX009 (oral), vehicle: other, higher = longer survival): 114 % of control | T/C (endpoint: median survival time, dose: 62.0 mg/kg/injection, schedule: Q01DX009 (ip), vehicle: saline with Tween-80, higher = longer survival): 255 % of control | T/C (endpoint: median survival time, dose: 89.0 mg/kg/injection, schedule: Q01DX009 (ip), vehicle: saline with Tween-80, higher = longer survival): 224 % of control | T/C (endpoint: median survival time, dose: 120.0 mg/kg/injection, schedule: Q01DX001 (oral), vehicle: other, higher = longer survival): 97 % of control | T/C (endpoint: median survival time, dose: 120.0 mg/kg/injection, schedule: Q01DX005 (oral), vehicle: other, higher = longer survival): 116 % of control | T/C (endpoint: median survival time, dose: 120.0 mg/kg/injection, schedule: Q01DX009 (oral), vehicle: other, higher = longer survival): 104 % of control | T/C (endpoint: median survival time, dose: 240.0 mg/kg/injection, schedule: Q01DX001 (ip), vehicle: other, higher = longer survival): 123 % of control | T/C (endpoint: median survival time, dose: 240.0 mg/kg/injection, schedule: Q01DX001 (oral), vehicle: other, higher = longer survival): 109 % of control | T/C (endpoint: median survival time, dose: 240.0 mg/kg/injection, schedule: Q01DX005 (oral), vehicle: other, higher = longer survival): 117 % of control | T/C (endpoint: median survival time, dose: 240.0 mg/kg/injection, schedule: Q01DX009 (oral), vehicle: other, higher = longer survival): 110 % of control | T/C (endpoint: median survival time, dose: 480.0 mg/kg/injection, schedule: Q01DX001 (oral), vehicle: other, higher = longer survival): 100 % of control | T/C (endpoint: median survival time, dose: 480.0 mg/kg/injection, schedule: Q01DX005 (oral), vehicle: other, higher = longer survival): 109 % of control | T/C (endpoint: median survival time, dose: 480.0 mg/kg/injection, schedule: Q01DX009 (oral), vehicle: other, higher = longer survival): 124 % of control

O=NN(CCCl)C(=O)NCCCl
T/C (endpoint: median survival time, dose: 1.35 mg/kg/injection, schedule: Q04DX009 (ip), vehicle: saline with Tween-80, higher = longer survival): 108 % of control | T/C (endpoint: median survival time, dose: 2.7 mg/kg/injection, schedule: Q02DX033 (ip), vehicle: saline, higher = longer survival): 233 % of control | T/C (endpoint: median survival time, dose: 2.7 mg/kg/injection, schedule: Q04DX009 (ip), vehicle: saline with Tween-80, higher = longer survival): 121 % of control | T/C (endpoint: median survival time, dose: 5.4 mg/kg/injection, schedule: Q02DX033 (ip), vehicle: saline, higher = longer survival): 171 % of control | T/C (endpoint: median survival time, dose: 5.4 mg/kg/injection, schedule: Q04DX009 (ip), vehicle: saline with Tween-80, higher = longer survival): 254 % of control | T/C (endpoint: median survival time, dose: 6.0 mg/kg/injection, schedule: Q01DX009 (ip), vehicle: saline + alcohol, higher = longer survival): 159 % of control | T/C (endpoint: median survival time, dose: 10.8 mg/kg/injection, schedule: Q04DX009 (ip), vehicle: saline with Tween-80, higher = longer survival): 238 % of control | T/C (endpoint: median tumor weight (est.), dose: 1.5 mg/kg/injection, schedule: Q01DX009 (ip), vehicle: saline + alcohol, higher = larger tumour): 25 % of control
